Test results: paper PMC8671752, “Effects of ex vivo Extracorporeal Membrane Oxygenation Circuits on Sequestration of Antimicrobial Agents” (Frontiers in Medicine, 2021)
Marks after values point to notes of the source that are not given here. Each block holds one molecule with its values, some of them ahead of it. Starred links: 1 amine or outer side, 2 acyl side, 3 side chain; linkers in the order of their positions; H or OH if unused. Positions of bridges follow the written chain, without caps; N, C: chain ends. Non-standard residues stand in square brackets, D forms with d. Residues, ends and D or L forms follow the SMILES beside them. *: point of attachment. hTyr(3S-OH,4S-OH,3'-OSO3H) = N[C@H](C(=O)O)[C@H](O)[C@@H](O)c1ccc(O)c(OS(=O)(=O)O)c1; Orn(4R-OH,5R-OH) = O=C([C@H](C[C@@H](O)[C@@H](O)N[*:3])N[*:1])[*:2]; Pro(3S-OH,4S-Me) = C[C@H]1CN[C@H](C(=O)O)[C@H]1O; X2 = CCCCCOc1ccc(-c2cc(-c3ccc(C(=O)*)cc3)no2)cc1; Gln(3R-OH) = NC(=O)C[C@@H](O)[C@H](N)C(=O)O; Hyp = O=C(O)[C@@H]1C[C@@H](O)CN1; X1 = CC[C@H](C)CCCCC(=O)*; Dab = NCC[C@H](N)C(=O)O

What was measured:
[1] = Control group: spontaneous drug degradation in whole blood at 37°C; details: HPLC-MS/MS; for Drug recovery, Control-3 h (Sorin experiment) / Drug recovery, Control-6 h (Sorin experiment) / Drug recovery, Control-24 h (Sorin experiment): control of Sorin experiment, single measurement; for Drug recovery, Control-3 h (Sorin experiment) / Drug recovery, Control-6 h (Sorin experiment) / Drug recovery, Control-24 h (Sorin experiment) / Mean drug recovery, Control-3 h (Maquet experiment) / Mean drug recovery, Control-6 h (Maquet experiment) / Mean drug recovery, Control-12 h (Maquet experiment) / Mean drug recovery, Control-24 h (Maquet experiment): whole human blood, no circuit, % of 2 min concentration; for Drug recovery, Control-3 h (Sorin experiment) / Mean drug recovery, Control-3 h (Maquet experiment): water bath 37°C 3 h; for Drug recovery, Control-6 h (Sorin experiment) / Mean drug recovery, Control-6 h (Maquet experiment): water bath 37°C 6 h; for Drug recovery, Control-24 h (Sorin experiment) / Mean drug recovery, Control-24 h (Maquet experiment) / Drug recovery (%) from control group at 24 h: water bath 37°C 24 h; for Mean drug recovery, Control-3 h (Maquet experiment) / Mean drug recovery, Control-6 h (Maquet experiment) / Mean drug recovery, Control-12 h (Maquet experiment) / Mean drug recovery, Control-24 h (Maquet experiment): control of Maquet experiment, n=2; for Mean drug recovery, Control-3 h (Maquet experiment) / Mean drug recovery, Control-6 h (Maquet experiment) / Mean drug recovery, Control-12 h (Maquet experiment) / Mean drug recovery, Control-24 h (Maquet experiment) / Drug recovery (%) from control group at 24 h: mean (SD), SD; for Mean drug recovery, Control-12 h (Maquet experiment): water bath 37°C 12 h; for Drug recovery (%) from control group at 24 h: controls of both experiments, whole human blood taken 2 min after injection, not passed through circuit, relative to 2 min baseline
[2] = ref DrugBank [12]; cited from earlier work
[3] = Drug recovery in the Sorin ECMO circuit; details: phosphorylcholine-coated circuit, whole human blood, 37°C, HPLC-MS/MS, % of 2 min concentration, single measurement
Method: (§1) Four healthy volunteers were recruited. After obtaining informed consent, 402 ml of blood was collected through the cubitus vein using disposable blood bags (Fresenius Kabi), of which 2 ml was used for a routine blood examination. Sorin (LivaNova, London, United Kingdom) and Maquet (Getinge AB, Hirrlingen, Germany) ECMO circuits were used to establish self-circulation and were primed with fresh whole human blood. After the circulation stabilized, the drugs were added to the circuit. Blood samples were collected at different time points, and the drug concentration was measured to observe the recovery rate of different drugs in the ECMO cycle.
(§2) Each circuit consisted of a membrane oxygenator, centrifugal pump, cannula, heat exchanger, and PVC tubing. The materials of each ECMO component are shown in Supplementary Material 1. A reservoir bag containing 30 mL of blood was used to construct a bypass to maintain the pressure of the circuit (Figure 1). Eight hundred milliliters of fresh whole human blood (<1 h old) was used to prime the circuit. Heparin (5,000 U) was added to the circuits to prevent clotting.
(§3) The circuit flow rate was controlled at 4–5 L/min. Circuit temperature was maintained at 37°C.
(§4) These bolus doses were selected to produce concentrations similar to clinical concentrations. The order of administration was determined according to the half-life from long to short. According to the drug instructions, none of the drugs interact with each other ([12]). Two milliliters of physiological saline solution (0.9%) was used to flush the tube after injection of all drugs to avoid drug loss at the entrance of administration.
(§5) In this study, two experiments were carried out and 26 blood samples were analyzed. The first experiment was conducted with the Maquet ECMO circuit. […] The blood samples collected at each time point were measured twice due to the uncertainty of the initial experiment.

[4] = cited from earlier work; for Lipophilicity (log P): ref DrugBank [12]
[5] = Drug recovery in the Maquet ECMO circuit; details: Bioline-coated circuit, whole human blood, 37°C, HPLC-MS/MS, % of 2 min concentration, mean (SD), n=2
Method: as §1, §2, §3, §4, §5

[6] = Drug recovery in blood-primed ex vivo ECMO circuits (average of Maquet and Sorin); details: for Drug recovery (%) from circuits at 24 h: average over Maquet and Sorin circuits, closed loop primed with fresh whole human blood, 37°C, pH 7.25–7.55, 4–5 L/min, plasma HPLC-MS/MS, relative to 2 min baseline, mean (SD), SD
Method: as §1, §2, §3, §4

[7] = cited from earlier work
[8] = cited from earlier work; remark: listed apart in the source

SMILES: CC[C@H](C)CCCCC(=O)N[C@@H](CCN)C(=O)N[C@H](C(=O)N[C@@H](CCN)C(=O)N[C@H]1CCNC(=O)[C@H]([C@@H](C)O)NC(=O)[C@H](CCN)NC(=O)[C@H](CCN)NC(=O)[C@H](CC(C)C)NC(=O)[C@@H](Cc2ccccc2)NC(=O)[C@H](CCN)NC1=O)[C@@H](C)O [Polymyxin B, polymyxin B] (X1-[Dab]T[Dab][Dab][Dab][dF]L[Dab][Dab]T; lactam 4-C)
Drug recovery, Control-3 h (Sorin experiment) [1]: 91%
Drug recovery, Control-6 h (Sorin experiment) [1]: 93%
Drug recovery, Control-24 h (Sorin experiment) [1]: 60.10 (-)^* %
Protein binding rate (%) [2]: 79–92%
Drug recovery, Sorin circuit, 5 min [3]: 118%
Drug recovery, Sorin circuit, 15 min [3]: 86%
Drug recovery, Sorin circuit, 30 min [3]: 84%
Drug recovery, Sorin circuit, 3 h [3]: 117%
Drug recovery, Sorin circuit, 6 h [3]: 74%
Drug recovery, Sorin circuit, 12 h [3]: 74%
Drug recovery, Sorin circuit, 24 h [3]: 61.66 (-)^* %
Lipophilicity (log P) [4]: −4.861

Mean drug recovery, Control-3 h (Maquet experiment) [1]: 100% (0%)
Mean drug recovery, Control-6 h (Maquet experiment) [1]: 99% (0%)
Mean drug recovery, Control-12 h (Maquet experiment) [1]: 100% (2%)
Mean drug recovery, Control-24 h (Maquet experiment) [1]: 98% (2%)
Drug recovery, Control-6 h (Sorin experiment) [1]: 98%
Drug recovery, Control-24 h (Sorin experiment) [1]: 98%
Drug recovery (%) from control group at 24 h [1]: 98.30 (1.17) %
Drug recovery, Sorin circuit, 5 min [3]: 100%
Drug recovery, Sorin circuit, 15 min [3]: 100%
Drug recovery, Sorin circuit, 30 min [3]: 99%
Drug recovery, Sorin circuit, 1 h ([3]; 1 h): 102%
Drug recovery, Sorin circuit, 6 h [3]: 98%
Drug recovery, Sorin circuit, 12 h [3]: 92%
Drug recovery, Sorin circuit, 24 h [3]: 75%
Mean drug recovery, Maquet circuit, 5 min [5]: 102% (3%)
Mean drug recovery, Maquet circuit, 15 min [5]: 100% (4%)
Mean drug recovery, Maquet circuit, 30 min [5]: 100% (2%)
Mean drug recovery, Maquet circuit, 1 h [5]: 102% (1%)
Mean drug recovery, Maquet circuit, 3 h [5]: 98% (2%)
Mean drug recovery, Maquet circuit, 6 h [5]: 99% (1%)
Mean drug recovery, Maquet circuit, 12 h [5]: 91% (5%)
Mean drug recovery, Maquet circuit, 24 h [5]: 81% (1%)
SMILES: CCN1CCN(C(=O)N[C@@H](C(=O)N[C@@H]2C(=O)N3C(C(=O)O)=C(CSc4nnnn4C)CS[C@H]23)c2ccc(O)cc2)C(=O)C1=O [Cefoperazone, cefoperazone]
Lipophilicity (log P) [4]: −0.74

SMILES: C[C@@H](c1ncncc1F)[C@](O)(Cn1cncn1)c1ccc(F)cc1F [Voriconazole, voriconazole]
Lipophilicity (log P) [4]: 2.561

Drug recovery (%) from control group at 24 h [1]: 144.54 (2.31) %
Drug recovery (%) from circuits at 24 h [6]: 100.03 (13.68) %
SMILES: CN(C)c1cc(NC(=O)CNC(C)(C)C)c(O)c2c1C[C@H]1C[C@H]3[C@H](N(C)C)C(O)=C(C(N)=O)C(=O)[C@@]3(O)C(O)=C1C2=O [Tigecycline, tigecycline]
Average Vd in critically ill patients ([7]; critically ill patients, no reference given): 398 L
Lipophilicity (log P) [4]: 0.8

Mean drug recovery, Control-3 h (Maquet experiment) [1]: 97% (4%)
Mean drug recovery, Control-6 h (Maquet experiment) [1]: 91% (9%)
Mean drug recovery, Control-12 h (Maquet experiment) [1]: 77% (8%)
Mean drug recovery, Control-24 h (Maquet experiment) [1]: 65% (10%)
Drug recovery, Control-3 h (Sorin experiment) [1]: 97%
Drug recovery, Control-6 h (Sorin experiment) [1]: 102%
Drug recovery, Control-24 h (Sorin experiment) [1]: 95%
Drug recovery (%) from control group at 24 h [1]: 74.84 (19.10) %
Drug recovery (%) from circuits at 24 h [6]: 45.37 (3.58) %
Average loss at 24 h in the circuits ([6]; loss, average of Maquet and Sorin circuits): 55%
Drug recovery, Sorin circuit, 3 h [3]: 100%
Drug recovery, Sorin circuit, 6 h [3]: 92%
Drug recovery, Sorin circuit, 12 h [3]: 74%
Drug recovery, Sorin circuit, 24 h [3]: 47%
Mean drug recovery, Maquet circuit, 5 min [5]: 100% (0%)
Mean drug recovery, Maquet circuit, 15 min [5]: 100% (1%)
Mean drug recovery, Maquet circuit, 30 min [5]: 101% (4%)
Mean drug recovery, Maquet circuit, 1 h [5]: 98% (0%)
Mean drug recovery, Maquet circuit, 3 h [5]: 93% (2%)
Mean drug recovery, Maquet circuit, 6 h [5]: 83% (7%)
Mean drug recovery, Maquet circuit, 12 h [5]: 64% (2%)
Mean drug recovery, Maquet circuit, 24 h [5]: 45% (5%)
SMILES: C[C@@H](O)[C@H]1C(=O)N2C(C(=O)O)=C(S[C@@H]3CN[C@H](C(=O)N(C)C)C3)[C@H](C)[C@H]12 [Meropenem, meropenem]
Lipophilicity (log P) [4]: −0.6

SMILES: CC(C)c1cccc(C(C)C)c1O [propofol]
octanol/water partition (log P) [4]: 4.0

SMILES: CCCCCOc1ccc(-c2cc(-c3ccc(C(=O)N[C@H]4C[C@@H](O)[C@@H](O)NC(=O)[C@@H]5[C@@H](O)[C@@H](C)CN5C(=O)[C@H]([C@H](O)CC(N)=O)NC(=O)[C@H]([C@H](O)[C@@H](O)c5ccc(O)c(OS(=O)(=O)O)c5)NC(=O)[C@@H]5C[C@@H](O)CN5C(=O)[C@H]([C@@H](C)O)NC4=O)cc3)no2)cc1 [Micafungin, micafungin] (X2-[Orn(4R-OH,5R-OH)]T[Hyp][hTyr(3S-OH,4S-OH,3'-OSO3H)][Gln(3R-OH)][Pro(3S-OH,4S-Me)]; lactam 1-C)
Drug recovery, Control-24 h (Sorin experiment) [1]: 98.82 (-)^* %
Vd in infants on ECMO, higher than in infants not on ECMO ([7]; infants on ECMO versus infants not on ECMO): 20–90%
Protein binding rate (%) [2]: > 99%
Drug recovery, Sorin circuit, 24 h [3]: 66.85 (-)^* %
Lipophilicity (log P) [4]: −1.5
Average drug recovery in the control group at 24 h ([8]; control group, ex vivo study by Watt et al.): 57%
Average drug recovery in the ECMO loop at 24 h ([8]; ex vivo study by Watt et al.): 26–43%

SMILES: CC[C@H](C)C[C@H](C)CCCCCCCCC(=O)N[C@H]1C[C@@H](O)[C@@H](NCCN)NC(=O)[C@@H]2[C@@H](O)CCN2C(=O)[C@H]([C@H](O)CCN)NC(=O)[C@H]([C@H](O)[C@@H](O)c2ccc(O)cc2)NC(=O)[C@@H]2C[C@@H](O)CN2C(=O)[C@H]([C@@H](C)O)NC1=O [Caspofungin, caspofungin]
Drug recovery (%) from control group at 24 h [1]: 85.24 (7.93) %
Drug recovery (%) from circuits at 24 h [6]: 83.26 (6.17) %
Protein binding rate (%) [2]: 97%
Lipophilicity (log P) [4]: −2.798
Average drug recovery at 24 h in the ECMO circuit ([8]; ex vivo experiment by Shekar et al.): 56%
